# Experimental data published in US7342122B2, “Bisphosphonate complexes” (priority 2003, dated 2008).
# “Also recorded” adds a separate entry of the source.
# Legend:
# [1] = In vitro assay, adsorption of Pt complexes to hydroxyapatite; type: binding; conditions: for adsorption percentage to hydroxyapatite: 100 mg of hydroxyapatite, HEPES buffer pD=7.8, 1.5 h, 37° C.; for adsorption to hydroxyapatite, comparison in words: FIGS. 1 and 2, 31P NMR, 1H NMR, AAS
# Method: Each of a 5, 10, 15, 25, 35, and 100 mg sample of hydroxyapatite (Bio-Rad Macro-Prep Ceramic Hydroxyapatite, type I, 40 μm) was added to 2 ml of HEPES buffer at pD=7.8 and the resulting mixture was shaken for about 24 h at 37° C. Then, 100 μl of each complexes dissolved in HEPES buffer at pD=7.8 was added and the mixtures were shaken for 1.5 h at 37° C. All suspensions were filtered, and these solutions were measured by ^31P NMR (Varian VXR-300S) and Atomic Absorption Spectrometry (Hitachi Z-5710 AAS) of platinum or, for carboplatin, by ^1H NMR. Percentage adsorption to hydroxyapatite was calculated as follows. From NMR: Binding percentage/%=[(A−B)/A]×100 From AAS: Binding percentage/%=[(C−D)/C]×100 • A=the integration intensity of Pt(II) complex • B=the integration intensity of Pt(II) complex after reacted with hydroxyapatite • C=the concentration of Pt(II) complex • D=the concentration of Pt(II) complex after reacted with hydroxyapatite
# HCT-15 = assay: Cell growth inhibition, colon cancer cell line HCT-15; type: cell-based; conditions: HCT-15, colon cancer cell line
# Method: (§1) KB cells were purchased from Human Science Research Resource Bank (Osaka, Japan). The cells were cultured in Earle's MEM (GIBCO BRL) containing 10% FBS (Bio Whittaker) at 37° C. under 5% CO2. After 24 hours the test compounds were added to the cells at the indicated concentrations. 72 hours later the cells were stained with tripan blue and counted manually. IC50 is calculated as the concentration (aqueous solution) of complex required to inhibit growth of cells by 50%.
# (§2) In a similar fashion a representative number of examples of compounds of the invention were tested for their ability to inhibit the growth/proliferation of cell types representing a number of different cancers. The results are provided in Tables 4-13, below, which provide the Inhibition Constants (IC50, μM) for each compound across various cell lines.
# DMS114 = assay: Cell growth inhibition, lung cancer cell line DMS114; type: cell-based
# Method: as §1, §2
# MCF-7 = assay: Cell growth inhibition, breast cancer cell line MCF-7; type: cell-based; conditions: MCF-7, breast cancer cell line
# Method: as §1, §2
# ACHN = assay: Cell growth inhibition, renal cancer ACHN; type: cell-based
# Method: as §1, §2
# MKN1 = assay: Cell growth inhibition, human stomach cancer MKN1; type: cell-based
# Method: as §1, §2
# OVCAR-8 = assay: Cell growth inhibition, ovarian cancer cell line OVCAR-8; type: cell-based; conditions: OVCAR-8, ovarian cancer cell line
# Method: as §1, §2
# SF-539 = assay: Cell growth inhibition, brain cancer cell line SF-539; type: cell-based; conditions: SF-539, brain cancer cell line
# Method: as §1, §2
# HBC-4 = assay: Cell growth inhibition, breast cancer cell line HBC-4; type: cell-based; conditions: HBC-4, breast cancer cell line
# Method: as §1, §2
# MKN74 = assay: Cell growth inhibition, human stomach cancer MKN74; type: cell-based
# Method: as §1, §2
# KM-12 = assay: Cell growth inhibition, colon cancer cell line KM-12; type: cell-based; conditions: KM-12, colon cancer cell line
# Method: as §1, §2
# MDA-MB-231 = assay: Cell growth inhibition, breast cancer cell line MDA-MB-231; type: cell-based; conditions: MDA-MB-231, breast cancer cell line
# Method: as §1, §2
# HCC2998 = assay: Cell growth inhibition, colon cancer cell line HCC2998; type: cell-based
# Method: as §1, §2
# SK-OV-3 = assay: Cell growth inhibition, ovarian cancer cell line SK-OV-3; type: cell-based; conditions: SK-OV-3, ovarian cancer cell line
# Method: as §1, §2
# St-4 = assay: Cell growth inhibition, human stomach cancer St-4; type: cell-based; conditions: St-4, human stomach cancer
# Method: as §1, §2
# NCI-H460 = assay: Cell growth inhibition, lung cancer cell line NCI-H460; type: cell-based
# Method: as §1, §2
# HCT-116 = assay: Cell growth inhibition, colon cancer cell line HCT-116; type: cell-based; conditions: HCT-116, colon cancer cell line
# Method: as §1, §2
# NCI-H23 = assay: Cell growth inhibition, lung cancer cell line NCI-H23; type: cell-based
# Method: as §1, §2
# HBC-5 = assay: Cell growth inhibition, breast cancer cell line HBC-5; type: cell-based; conditions: HBC-5, breast cancer cell line
# Method: as §1, §2
# SNB-75 = assay: Cell growth inhibition, brain cancer cell line SNB-75; type: cell-based; conditions: SNB-75, brain cancer cell line
# Method: as §1, §2
# LOX-IMVI = assay: Cell growth inhibition, melanoma cell line LOX-IMVI; type: cell-based
# Method: as §1, §2
# BSY-1 = assay: Cell growth inhibition, breast cancer cell line BSY-1; type: cell-based; conditions: BSY-1, breast cancer cell line
# Method: as §1, §2
# SNB-78 = assay: Cell growth inhibition, brain cancer cell line SNB-78; type: cell-based; conditions: SNB-78, brain cancer cell line
# Method: as §1, §2
# U251 = assay: Cell growth inhibition, brain cancer cell line U251; type: cell-based
# Method: as §1, §2
# [2] = system: all cell types (cancer cell lines of Tables 4-12); assay: Cell growth inhibition, mean over all cell types of the panel; type: cell-based; conditions: mean over all cell lines of Tables 4-12
# Method: as §1, §2
# SF-295 = assay: Cell growth inhibition, brain cancer cell line SF-295; type: cell-based; conditions: SF-295, brain cancer cell line
# Method: as §1, §2
# OVCAR-3 = assay: Cell growth inhibition, ovarian cancer cell line OVCAR-3; type: cell-based; conditions: OVCAR-3, ovarian cancer cell line
# Method: as §1, §2
# DU-145 = assay: Cell growth inhibition, prostatic cancer DU-145; type: cell-based, human; conditions: DU-145, prostatic cancer
# Method: as §1, §2
# RXF-631L = assay: Cell growth inhibition, renal cancer RXF-631L; type: cell-based
# Method: as §1, §2
# A549 = assay: Cell growth inhibition, lung cancer cell line A549; type: cell-based
# Method: as §1, §2
# DMS273 = assay: Cell growth inhibition, lung cancer cell line DMS273; type: cell-based
# Method: as §1, §2
# PC-3 = assay: Cell growth inhibition, prostatic cancer PC-3; type: cell-based; conditions: PC-3, prostatic cancer
# Method: as §1, §2
# MKN28 = assay: Cell growth inhibition, human stomach cancer MKN28; type: cell-based
# Method: as §1, §2
# MKN45 = assay: Cell growth inhibition, human stomach cancer MKN45; type: cell-based
# Method: as §1, §2
# NCI-H522 = assay: Cell growth inhibition, lung cancer cell line NCI-H522; type: cell-based
# Method: as §1, §2
# MKN7 = assay: Cell growth inhibition, human stomach cancer MKN7; type: cell-based
# Method: as §1, §2
# OVCAR-5 = assay: Cell growth inhibition, ovarian cancer cell line OVCAR-5; type: cell-based; conditions: OVCAR-5, ovarian cancer cell line
# Method: as §1, §2
# HT-29 = assay: Cell growth inhibition, colon cancer cell line HT-29; type: cell-based; conditions: HT-29, colon cancer cell line
# Method: as §1, §2
# SF-268 = assay: Cell growth inhibition, brain cancer cell line SF-268; type: cell-based; conditions: SF-268, brain cancer cell line
# Method: as §1, §2
# OVCAR-4 = assay: Cell growth inhibition, ovarian cancer cell line OVCAR-4; type: cell-based; conditions: OVCAR-4, ovarian cancer cell line
# Method: as §1, §2
# NCI-H226 = assay: Cell growth inhibition, lung cancer cell line NCI-H226; type: cell-based
# Method: as §1, §2
molecule,measurement,setting,value
"[NH2][Pt]1([NH2])[O]P(=O)(O)CP(=O)(O)[O]1 [Example 1, cis-Pt(NH3)2(MDP)]",adsorption percentage to hydroxyapatite,[1],69.3%
same,"adsorption to hydroxyapatite, comparison in words",[1],adsorbed quite significantly more than carboplatin
Pt(dach)-IP6 [Example 10],log10 IC50 (M),HCT-15,-5.14
same,log10 IC50 (M),DMS114,-4.26
same,log10 IC50 (M),MCF-7,-5.32
same,log10 IC50 (M),ACHN,-5.21
same,log10 IC50 (M),MKN1,-4.89
same,log10 IC50 (M),OVCAR-8,-4.57
same,log10 IC50 (M),SF-539,-5.14
same,log10 IC50 (M),HBC-4,-5.07
same,log10 IC50 (M),MKN74,-4.15
same,log10 IC50 (M),KM-12,-4.23
same,log10 IC50 (M),MDA-MB-231,-4.67
same,log10 IC50 (M),HCC2998,-4.7
same,log10 IC50 (M),SK-OV-3,-4.28
same,log10 IC50 (M),St-4,-4.3
same,log10 IC50 (M),NCI-H460,-5.19
same,log10 IC50 (M),HCT-116,-5.33
same,log10 IC50 (M),NCI-H23,-4.95
same,log10 IC50 (M),HBC-5,-5.4
same,log10 IC50 (M),SNB-75,-4.86
same,log10 IC50 (M),LOX-IMVI,-5.31
same,log10 IC50 (M),BSY-1,-4.56
same,log10 IC50 (M),SNB-78,-4.48
same,log10 IC50 (M),U251,-4.69
same,log10 IC50 (M),[2],-4.86
same,log10 IC50 (M),SF-295,-4.67
same,log10 IC50 (M),OVCAR-3,-4.9
same,log10 IC50 (M),DU-145,-5.03
same,log10 IC50 (M),RXF-631L,-4.39
same,log10 IC50 (M),A549,-5.21
same,log10 IC50 (M),DMS273,-6.27
same,log10 IC50 (M),PC-3,-4.46
same,log10 IC50 (M),MKN28,-4.19
same,log10 IC50 (M),MKN45,-6.21
same,log10 IC50 (M),NCI-H522,-5.17
same,log10 IC50 (M),MKN7,-4.17
same,log10 IC50 (M),OVCAR-5,-4.78
same,log10 IC50 (M),HT-29,-4.65
same,log10 IC50 (M),SF-268,-4.52
same,log10 IC50 (M),OVCAR-4,-5.01
same,log10 IC50 (M),NCI-H226,-5.08
"O=P1(O)CP(=O)(O)[O][Pt]2([NH][C@@H]3CCCC[C@H]3[NH]2)[O]1 (some centres unmarked) [Example 2, Pt(dach)(MDP)]",adsorption percentage to hydroxyapatite,[1],79.6%
same,"adsorption to hydroxyapatite, comparison in words",[1],adsorbed slightly more than cis-Pt(NH3)2(MDP); also recorded: adsorbed quite significantly more than carboplatin
